Results as given in patent US10385014B2, “Acyloxyalkyl carbamate prodrugs, methods of synthesis and use” (ARBOR PHARMACEUTICALS, LLC, priority 2003, dated 2019).

Columns and labels:
[1] = animal models; cited from earlier work
[2] = Chemical stability of prodrugs in aqueous buffers; type: physicochemical
Method: (§1) The stabilities of prodrugs were evaluated in one or more in vitro systems using a variety of tissue preparations following methods known in the art. The chemical stability of prodrugs in aqueous buffers at pH's of 2.0, 7.4 and 8.0 were also measured. […] Each preparation was incubated with test compound at 37° C. for one hour. Aliquots (50 μL) were removed at 0, 30, and 60 min and quenched with 0.1% trifluoroacetic acid in acetonitrile. Samples were then centrifuged and analyzed by LC/MS/MS (see Example 86 below for method details).

[3] = Prodrug stability in rat plasma in vitro; type: in vitro ADME; details: 2.0 μM, 37° C.
Method: as §1

[4] = Prodrug stability in human plasma in vitro; type: in vitro ADME; details: 2.0 μM, 37° C.
Method: as §1

[5] = Prodrug stability in rat liver S9; type: in vitro ADME; details: Rat Liver S9 (0.5 mg/mL), 2.0 μM, NADPH, 37° C.
Method: as §1

[6] = Prodrug stability in human liver S9; type: in vitro ADME; details: Human Liver S9 (0.5 mg/mL), 2.0 μM, NADPH, 37° C.
Method: as §1

[7] = Caco-2 homogenate S9 stability; type: in vitro ADME; details: Caco-2 S9 (0.5 mg protein per mL), 5 μM, 37° C.
Method: Caco-2 Homogenate S9 Stability: Caco-2 cells were grown for 21 days prior to harvesting. Culture medium was removed and cell monolayers were rinsed and scraped off into ice-cold 10 mM sodium phosphate/0.15 M potassium chloride, pH 7.4. Cells were lysed by sonication at 4° C. using a probe sonicator. Lysed cells were then transferred into 1.5 mL centrifuge vials and centrifuged at 9000 g for 20 min at 4° C. The resulting supernatant (Caco-2 cell homogenate S9 fraction) was aliquoted into 0.5 mL vials and stored at −80° C. until used.
For stability studies, prodrug (5 μM) was incubated in Caco-2 homogenate S9 fraction (0.5 mg protein per mL) for 60 min at 37° C. Concentrations of intact prodrug and released baclofen were determined at zero time and 60 minutes using LC/MS/MS.

[8] = test system: pancreatin; assay: Pancreatin stability; type: in vitro ADME, porcine; details: 1% (w/v) pancreatin, 5 μM, pH 7.5, 37° C.
Method: Pancreatin Stability: Stability studies were conducted by incubating prodrug (5 μM) with 1% (w/v) pancreatin (Sigma, P-1625, from porcine pancreas) in 0.025 M Tris buffer containing 0.5 M NaCl (pH 7.5) at 37° C. for 60 min. The reaction was stopped by addition of 2 volumes of methanol. After centrifugation at 14,000 rpm for […], the supernatant was removed and analyzed by LC/MS/MS.

[9] = test system: Caco-2 cells; assay: Caco-2 cellular permeability of prodrugs; type: in vitro ADME; details: Caco-2 monolayer, ratio of Papp values
Method: For example, cellular permeability may be evaluated by examining the flux of a prodrug across a cultured polarized cell monolayer (e.g., Caco-2 cells). Caco-2 cells obtained from continuous culture (passage less than 28) were seeded at high density onto Transwell polycarbonate filters. Cells were maintained with DMEM/10% fetal calf serum+0.1 mM nonessential amino acids+2 mM L-Gln, 5% CO2/95% O2, 37° C. until the day of the experiment. Permeability studies were conducted at pH 6.5 apically (in 50 mM MES buffer containing 1 mM CaCl2, 1 mM MgCl2, 150 mM NaCl, 3 mM KCl, 1 mM NaH2PO4, 5 mM glucose) and pH 7.4 basolaterally (in Hanks' balanced salt solution containing 10 mM HEPES) in the presence of efflux pump inhibitors (250 μM MK-571, 250 μM Verapamil, 1 mM Ofloxacin). Inserts were placed in 12 or 24 well plates containing buffer and incubated for 30 min at 37 C.°. Prodrug (200 μM) was added to the apical or basolateral compartment (donor) and concentrations of prodrug and/or released parent drug in the opposite compartment (receiver) were determined at intervals over 1 hour using LC/MS/MS. Values of apparent permeability (Papp) were calculated using the equation: Papp=Vr(dC/dt)//(ACo)
Here Vr is the volume of the receiver compartment in mL; dC/dt is the total flux of prodrug and parent drug (μM/s), determined from the slope of the plot of concentration in the receiver compartment versus time; Co is the initial concentration of prodrug in μM; A is the surface area of the membrane in cm^2.

NCC(CC(=O)O)c1ccc(Cl)cc1 (racemic) [Baclofen, (±)-4-Amino-3-(4-chlorophenyl)butanoic acid]
absorption following administration into the colon [1]: poorly absorbed

CCCC(=O)OCOC(=O)NC[C@H](CC(=O)[O-])c1ccc(Cl)cc1.[Na+] [(16), Sodium 4-[(Butanoyloxymethoxy)carbonylamino]-(3R)-(4-chlorophenyl)-butanoate]
% of Baclofen Released after 60 min ([2]; aqueous buffer pH 2.0, 37° C.): 0%
% of Prodrug Remaining after 60 min ([2]; aqueous buffer pH 2.0, 37° C.): 100%
% of Baclofen Released after 60 min ([2]; aqueous buffer pH 7.4, 37° C.): 0%
% of Prodrug Remaining after 60 min ([2]; aqueous buffer pH 7.4, 37° C.): 100%
% of Baclofen Released after 60 min ([2]; aqueous buffer pH 8.0, 37° C.): 0%
% of Prodrug Remaining after 60 min ([2]; aqueous buffer pH 8.0, 37° C.): 100%
% of Baclofen Released after 60 min [3]: 40%
% of Prodrug Remaining after 60 min [3]: 54%
% of Baclofen Released after 60 min [4]: 20%
% of Prodrug Remaining after 60 min [4]: 62%
% of Baclofen Released after 60 min [5]: 100%
% of Prodrug Remaining after 60 min [5]: 1%
% of Baclofen Released after 60 min [6]: 100%
% of Prodrug Remaining after 60 min [6]: 1%
% of Baclofen Released after 60 min [7]: 100%
% of Prodrug Remaining after 60 min [7]: 1%
% of Prodrug Remaining after 60 min [8]: 1%
Ratio A-B/B-A [9]: 5.1

CC(C)C(=O)OCOC(=O)NC[C@H](CC(=O)[O-])c1ccc(Cl)cc1.[Na+] [(18), Sodium 4-[(Isobutanoyloxymethoxy)carbonylamino]-(3R)-(4-chlorophenyl)-butanoate]
% of Baclofen Released after 60 min ([2]; aqueous buffer pH 2.0, 37° C.): 0%
% of Prodrug Remaining after 60 min ([2]; aqueous buffer pH 2.0, 37° C.): 105%
% of Baclofen Released after 60 min ([2]; aqueous buffer pH 7.4, 37° C.): 0%
% of Prodrug Remaining after 60 min ([2]; aqueous buffer pH 7.4, 37° C.): 95%
% of Baclofen Released after 60 min ([2]; aqueous buffer pH 8.0, 37° C.): 0%
% of Prodrug Remaining after 60 min ([2]; aqueous buffer pH 8.0, 37° C.): 102%
% of Baclofen Released after 60 min [3]: 60%
% of Prodrug Remaining after 60 min [3]: 39%
% of Baclofen Released after 60 min [4]: 27%
% of Prodrug Remaining after 60 min [4]: 61%
% of Baclofen Released after 60 min [5]: 100%
% of Prodrug Remaining after 60 min [5]: 1%
% of Baclofen Released after 60 min [6]: 100%
% of Prodrug Remaining after 60 min [6]: 2%
% of Baclofen Released after 60 min [7]: 100%
% of Prodrug Remaining after 60 min [7]: 1%
% of Prodrug Remaining after 60 min [8]: 2%
Ratio A-B/B-A [9]: 1.1

CC(=O)OC(C)OC(=O)NC[C@H](CC(=O)[O-])c1ccc(Cl)cc1.[Na+] (stereo partly drawn) [(30), Sodium 4-[(1-Acetoxyethoxy)carbonylamino]-(3R)-(4-chlorophenyl)-butanoate]
% of Baclofen Released after 60 min ([2]; aqueous buffer pH 2.0, 37° C.): 0%
% of Prodrug Remaining after 60 min ([2]; aqueous buffer pH 2.0, 37° C.): 100%
% of Baclofen Released after 60 min ([2]; aqueous buffer pH 7.4, 37° C.): 1%
% of Prodrug Remaining after 60 min ([2]; aqueous buffer pH 7.4, 37° C.): 87%
% of Baclofen Released after 60 min ([2]; aqueous buffer pH 8.0, 37° C.): 3%
% of Prodrug Remaining after 60 min ([2]; aqueous buffer pH 8.0, 37° C.): 81%
% of Baclofen Released after 60 min [3]: 42%
% of Prodrug Remaining after 60 min [3]: 58%
% of Baclofen Released after 60 min [4]: 8%
% of Prodrug Remaining after 60 min [4]: 85%
% of Baclofen Released after 60 min [5]: 85%
% of Prodrug Remaining after 60 min [5]: 1%
% of Baclofen Released after 60 min [6]: 87%
% of Prodrug Remaining after 60 min [6]: 7%
% of Baclofen Released after 60 min [7]: 70%
% of Prodrug Remaining after 60 min [7]: 24%
% of Baclofen Released after 60 min [8]: 9%
Ratio A-B/B-A [9]: 3.8

O=C([O-])C[C@@H](CNC(=O)OCOC(=O)CCc1ccccc1)c1ccc(Cl)cc1.[Na+] [(62), Sodium 4-[(3-Phenylpropionovloxymethoxy)carbonylamino]-(3R)-(4-chlorophenyl)-butanoate]
% of Baclofen Released after 60 min ([2]; aqueous buffer pH 2.0, 37° C.): 0%
% of Baclofen Released after 60 min ([2]; aqueous buffer pH 7.4, 37° C.): 2%
% of Baclofen Released after 60 min ([2]; aqueous buffer pH 8.0, 37° C.): 8%
% of Prodrug Remaining after 60 min [3]: 5%
% of Baclofen Released after 60 min [4]: 2%
% of Prodrug Remaining after 60 min [5]: 2%
% of Prodrug Remaining after 60 min [6]: 0%
% of Prodrug Remaining after 60 min [7]: 1%
% of Prodrug Remaining after 60 min [8]: 1%

CCCC(=O)O[C@H](CCC)OC(=O)NC[C@H](CC(=O)[O-])c1ccc(Cl)cc1.[Na+] [(86), Sodium 4-{[(1S)-Butanoyloxybutoxy]carbonylamino}-(3R)-(4-chlorophenyl)-butanoate]
% of Baclofen Released after 60 min ([2]; aqueous buffer pH 2.0, 37° C.): 0%
% of Baclofen Released after 60 min ([2]; aqueous buffer pH 7.4, 37° C.): 1%
% of Baclofen Released after 60 min ([2]; aqueous buffer pH 8.0, 37° C.): 2%
% of Prodrug Remaining after 60 min [3]: 1%
% of Prodrug Remaining after 60 min [5]: 2%
% of Prodrug Remaining after 60 min [6]: 2%
% of Prodrug Remaining after 60 min [7]: 2%
% of Prodrug Remaining after 60 min [8]: 4%

CCCC(=O)O[C@H](OC(=O)NC[C@H](CC(=O)[O-])c1ccc(Cl)cc1)C(C)C.[Na+] [(90), Sodium 4-{[(1R)-Butanoyloxyisobutoxy]carbonylamino}-(3R)-(4-chlorophenyl)-butanoate]
% of Baclofen Released after 60 min ([2]; aqueous buffer pH 2.0, 37° C.): 0%
% of Baclofen Released after 60 min ([2]; aqueous buffer pH 7.4, 37° C.): 0%
% of Baclofen Released after 60 min ([2]; aqueous buffer pH 8.0, 37° C.): 1%
% of Prodrug Remaining after 60 min ([2]; aqueous buffer pH 8.0, 37° C.): 93%
% of Prodrug Remaining after 60 min [3]: 5%
% of Baclofen Released after 60 min [4]: 2%
% of Prodrug Remaining after 60 min [5]: 3%
% of Prodrug Remaining after 60 min [6]: 1%
% of Prodrug Remaining after 60 min [7]: 5%
% of Prodrug Remaining after 60 min [8]: 9%
